Measured values as given in PMC9781803, “Phenotypic and Target-Directed Screening Yields New Acaricidal Alternatives for the Control of Ticks” (Molecules, 2022).
Read-outs that look alike come from different tables or passages of the source.

How the values were obtained:
[1] = molecular target: T1, Homo sapiens triosephosphate isomerase (HsTIM) (Homo sapiens, UniProt P60174); experiment: Enzymatic activity of TIM, coupled enzyme assay; type: biochemical
T1 construct: made in house; host or cells: Escherichia coli
Experimental: (§1) R. microplus triosephosphate isomerase (RmTIM) and Homo sapiens triosephosphate isomerase (HsTIM) were expressed in Escherichia coli, and purified as previously described in the literature. Protein concentration was determined by absorbance measurements at 280 nm for RmTIM (ε = 33440 M^−1cm^−1) and HsTIM (ε = 33460 M^−1cm^−1). Enzymatic activity was determined following the reaction of the conversion of glyceraldehyde-3-phosphate to dihydroxyacetone phosphate in a coupled enzyme assay using α-glycerol-phosphate dehydrogenase. The decrease in absorbance at 340 nm was recorded in a multiplate reader Varioskan™ Flash Multimode Reader (Thermo Scientific^TM, Waltham, MA, USA) at 25 °C. The reaction mixture ([…], pH 7.4) contained 100 mM triethanolamine, 10 mM EDTA, 0.2 mM NADH, 1 mM glyceraldehyde-3-phosphate, and 0.9 units of α-glycerol-phosphate dehydrogenase. The reaction was initiated by the addition of 5 ng/mL of the TIM of interest. For the inhibition studies (incubation mixture), TIM was incubated at a concentration of 5 mg/mL in a buffer of pH 7.4 containing 100 mM triethanolamine, 10 mM EDTA, and 10% DMSO at 25 °C for 1 h. The mixture also contained the compounds, dissolved in DMSO, at final concentrations of 10 and 100 μM. After 1 h, 10 μL of the incubation mixture was added to the reaction mixture, to a final volume of 100 μL in a 96-well plate. None of the molecules tested here affected the activity of α-glycerol-phosphate dehydrogenase (checked in situ on the reaction mixture inhibited, with the addition of fresh α-glycerol-phosphate dehydrogenase and running the measurement again). The IC50 value was taken as the concentration of drug needed to reduce the enzymatic activity by 50%, and was analyzed using OriginLab 8.5 Corporation, Northampton, MA, USA, sigmoidal regression (% of enzymatic activity vs. the logarithm of the compound concentration). The tests were performed in triplicate in two independent experiments.

R. microplus = experiment: Acaricidal activity on R. microplus (LIT and AIT, overall statement); type: in vivo; conditions: LIT 1 mM and AIT 1.5 mM
Experimental: After immersion, the fully engorged females were lightly dried with absorbent paper. […] The tubes carrying the eggs were closed with hydrophilic cotton, and were returned to the incubator chamber under the same conditions until the eggs hatched. The reproductive efficacy, as well as % control of each compound on R. microplus, was calculated according to published reports. The results were verified in two independent experiments. This assay was performed based on the method of Castro-Janer et al., 2011. […] The tubes were incubated in the same conditions as described above. The larvae were ready for testing after 14 to 21 days from egg-hatching. For the test, the compounds were diluted in DMSO, and were later resuspended in distilled water, always using 15% DMSO of the final solution volume. […] For the immersion procedure, tubes containing the larvae were placed vertically, without the cotton plug, and the larvae were taken with a brush from the top of the tube, ensuring they were viable. A cluster with a diameter of 2 mm of larvae was collected with a brush, and was later immersed in each solution, as well as in both control solutions, for 10 min. After this time, the solutions were drained, and the larvae were placed in 8.5 cm × 7.5 cm Whatman No. 1 filter papers. The filters were folded in the middle of the 8.5 cm side, and closed with 3 bulldog clips, forming packets. These packets were incubated for 24 h, under the same conditions as described previously, and then the percent of mortality was determined, considering it as the % of the control.

[2] = molecular target: R. microplus triosephosphate isomerase (RmTIM) (Rhipicephalus microplus, UniProt A8B3A8); experiment: biochemical; conditions: for IC50: RmTIM; for inhibition at 100 µM / inhibition at 10 µM: 1 h incubation, read-out: % Inhibition of Enzymatic Activity of RmTIM
Experimental: as §1

[3] = system: J774.1 murine macrophages; experiment: Cytotoxicity assay on murine macrophages (MTT); type: cell-based; conditions: for EC50: read-out: EC50 (µM) for Mammalian Cells; for IC50: J774.1, 48 h, read-out: IC50 (µM) Mammalian Cells
Experimental: J774.1 murine macrophages (ATCC, Rockville, MD, USA) were grown in a DMEM culture medium containing 4 mM L-glutamine, and supplemented with 10% FCS. The cells were seeded into a 96-well plate (5 × 10^4 cells in 200 µL culture medium) and incubated at 37 °C in a 5% CO2 atmosphere for 48 h, to allow cell adhesion before drug testing. Afterward, the cells were exposed for 48 h to the compounds (25–400 μM) or the vehicle (0.4% DMSO), and additional controls (cells in medium) were used in each test. Cell viability was then assessed by measuring the mitochondria-dependent reduction of MTT to formazan: for this, MTT in sterile PBS (0.2% glucose), pH 7.4, was added to the macrophages, to a final concentration of 0.1 mg/mL, and the cells were then incubated at 37 °C for 3 h. After removing the medium, the formazan crystals were dissolved in 180 μL of DMSO and 20 μL of MTT buffer (0.1 M glycine, 0.1 M NaCl, 0.5 mM EDTA, pH 10.5), and the absorbance was measured at 560 nm. The IC50 was defined as the drug concentration at which 50% of the cells were viable, relative to the control (no drug added), and was determined by analysis using OriginLab 8.5 Corporation, Northampton, MA, USA, sigmoidal regression (% of viable cells compared to the logarithm of the compound concentration). The tests were performed in triplicate in two independent experiments.

[4] = system: embryonic cell line BME26; experiment: Phenotypic screening on BME26 cell cultures (MTT viability); type: cell-based, R. microplus; conditions: for inhibition at 100 µM: read-out: % of Growth Inhibition
Experimental: The embryonic cell line BME26 from R. microplus (Centro de Biotecnologia, Universidade Federal do Rio Grande do Sul, Porto Alegre, RS, Brazil) was grown as adherent monolayers in a complete medium, as described previously, which consisted of L-15B300 medium supplemented with 5% heat-inactivated Fetal Bovine Serum (FBS) (Gibco Co., Grand Island, NY), 10% Tryptose Phosphate Broth (TPB) (BD), penicillin (100 U/mL), streptomycin ([…], Gibco Co., Grand Island, NY, USA), and 0.1% bovine lipoprotein concentrate (ICN), (pH 7.2). The suspension of embryonic BME26 cells from R. microplus was seeded into 24-well plates (5 × 10^5 cells/well) to a final volume of 500 μL in a complete medium, and allowed to attach. After 24 h incubation at 34 °C, the extracts (100 µg/mL final concentration) and the compounds were added to the final concentrations indicated (1–100 µM), and 0.05% dimethylsulfoxide (DMSO) was used in the negative control wells. After 24 h of treatment, 50 μL of 3-(4,5-dimethylthiazol-2-yl)-2,5-diphenyltetrazolium bromide (MTT) prepared in serum-free medium (5 mg/mL) was added to each well. The media were discarded after 2 additional hours of incubation, and 1 mL of acid-isopropyl alcohol (0.15% HCl in isopropyl alcohol) was added to dissolve the formazan crystals. The mixture was transferred to 1.5 mL tubes, centrifuged at 6000× g for 15 min, and the clear supernatant was collected in new tubes for absorbance measurement at 570 nm using quartz cuvettes in a UVmini-1240 UV–vis spectrophotometer (Shimadzu, Japan). Absorbance values of the control treatment were used for normalization (100% viability). The activity was determined by analysis using OriginLab8.5® sigmoidal regression (% of viable cells compared to the logarithm of the compound concentration). The half-maximal inhibitory concentration (IC50), defined as the drug concentration at which 50% of the cells were viable relative to the control (no drug added), was used as a measurement of activity. These experiments were performed in triplicate for each compound.

[5] = system: fully engorged females of the Mozo susceptible strain of R. microplus; experiment: Adult Immersion Test (AIT); type: in vivo; conditions: compounds 1.5 mM, 15 min immersion, 14 days
Experimental: This essay was performed based on Drummond et al., 1973, as each group of 5 fully engorged females of the Mozo susceptible strain of R. microplus was immersed in 50 mL tubes containing 10 mL of compounds at different concentrations (0.5, 1, 1.5, 2, 3.5 mM) for 15 min in four replicates. Four negative control groups were used (DMSO 10%). After immersion, the fully engorged females were lightly dried with absorbent paper. They were then placed in 100 mm disposable Petri dishes with their respective identification, and immediately incubated at 27 °C in an atmosphere with relative humidity (RH) of 85-90% for 14 days. […] The tubes carrying the eggs were closed with hydrophilic cotton, and were returned to the incubator chamber under the same conditions until the eggs hatched. The reproductive efficacy, as well as % control of each compound on R. microplus, was calculated according to published reports. The results were verified in two independent experiments.

[6] = BME26 cells, 24 h, MTT, read-out: IC50
[7] = synthetic compounds at 100 μM, BME26, 24 h
[8] = Mus musculus, J774.1, cytotoxicity

Chain of R. microplus triosephosphate isomerase (RmTIM) (A8B3A8 entry or part of it): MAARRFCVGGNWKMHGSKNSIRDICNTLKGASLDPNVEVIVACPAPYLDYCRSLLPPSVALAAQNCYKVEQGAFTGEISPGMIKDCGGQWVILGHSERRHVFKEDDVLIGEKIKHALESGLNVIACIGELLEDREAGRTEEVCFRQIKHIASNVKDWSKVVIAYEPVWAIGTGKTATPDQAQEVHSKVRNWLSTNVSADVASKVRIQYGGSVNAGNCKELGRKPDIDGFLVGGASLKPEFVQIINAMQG
T1 sequence (P60174 whole entry): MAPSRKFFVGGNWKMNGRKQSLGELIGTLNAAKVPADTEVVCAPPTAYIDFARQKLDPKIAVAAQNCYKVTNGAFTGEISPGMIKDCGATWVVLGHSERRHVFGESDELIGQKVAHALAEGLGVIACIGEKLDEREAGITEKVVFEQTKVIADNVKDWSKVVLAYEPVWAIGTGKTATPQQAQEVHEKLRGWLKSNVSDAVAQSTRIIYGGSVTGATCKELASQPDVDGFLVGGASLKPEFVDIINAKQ

Row | SMILES | acaricidal activity (in words) (R. microplus) | IC50 ([2]; read-out: IC50) [µM] | IC50 ([3]; Mus musculus) [µM] | IC50 [4, 6] [µM] | inhibition at 100 µM [4, 7] [%] | also measured
1 | COc1cc(/C=C/C(=O)CC(=O)/C=C/[c-]2cccc2)ccc1O.[Fe+2].c1cc[cH-]c1 [Mar105, [(1E,6E)-7-(4-hydroxy-3-methoxyphenyl)-3,5-dioxo-1,6-heptadien-1-yl]ferrocene] | did not show reproducible acaricidal activity | 10 ± 1 | – | – | – | % Inhibition of Enzymatic Activity of HsTIM at 10 µM ([1]; at 10 µM): 0%; EC50 ([3]; cytotoxicity): > 25 µM
2 | CC(/C=C/C(=O)/C=C/C(C)=C/c1ccco1)=C\c1ccco1 [compound 809] | – | – | > 50 | > 100 | 50 | –
3 | O=C1C(Cl)=C(Oc2cccc3ccccc23)C(=O)c2ccccc21 [compound 1408] | – | > 50 | – | – | – | inhibition at 100 µM [2]: 72%
4 | O=C(/C=C/c1ccsc1)/C=C/c1ccsc1 [compound 1387] | did not show reproducible acaricidal activity | < 10 | – | – | – | inhibition at 10 µM [1]: 0%; inhibition at 10 µM [2]: 100%; EC50 [3, 8]: > 50 µM
5 | O=C(/C=C/c1ccco1)/C=C/c1ccco1 [compound 795] | acaricidal potential | – | > 50 | 20 ± 3 | 80 | % of Mortality AIT [5]: 70 ± 7%
6 | C=CCn1c(-c2ccc(Cl)cc2)cs/c1=N/N=C/c1cccs1 [compound 133] | – | – | > 50 | > 50 | 71 | –
7 | O=C(N/N=C/C=C/c1ccco1)c1cnn(-c2ccccc2)c1 [compound 1366] | – | – | – | – | – | inhibition at 100 µM [2]: 38%
8 | C=CCn1c(-c2ccc(Cl)cc2)cs\c1=N/N=C/C=C/c1ccco1 [compound 266] | acaricidal potential against R. microplus similar to Amitraz | – | > 50 | > 100 | 77 | –
9 | COc1ccc(/C=C2\CCCC3C2=NN(c2ccccn2)C3c2ccc(OC)cc2)cc1 (centres unmarked) [Dm97] | – | – | – | – | – | inhibition at 100 µM [2]: 0%
10 | FC(F)(F)C1=CSC(Nc2ccccc2)N1Cc1ccco1 (centres unmarked) [compound 1385] | did not show reproducible acaricidal activity | < 10 | – | – | – | inhibition at 10 µM [2]: 89%; EC50 [3, 8]: > 50 µM
11 | COc1cc(/C=C/C(=O)CC(=O)/C=C/c2ccc(O)c(OC)c2)ccc1O [compound 906, curcumin] | acaricidal potential against R. microplus similar to Amitraz | – | < 25 | 24 ± 3 | 95 | % of Mortality AIT [5]: 60 ± 8%
12 | Nc1ccc2c(c1)[n+]([O-])c1cc(Br)ccc1[n+]2[O-] [compound 181] | – | – | < 25 | – | 90 | –
13 | O=c1cc(O)n(Cc2ccccc2)c(=S)n1Cc1ccccc1 [compound 1088] | – | > 50 | – | – | – | –
14 | CN=C1C=CC(=C(c2ccc(N(C)C)cc2)c2ccc(N(C)C)cc2)C=C1 [compound 1386] | did not show reproducible acaricidal activity | < 10 | – | – | – | inhibition at 10 µM [2]: 100%
15 | C(=C\c1ccco1)/C=N/N1CCN(C/C=C/c2ccccc2)CC1 [compound 912] | – | – | > 50 | > 50 | 52 | % of Mortality AIT [5]: 30 ± 8%
16 | COc1ccc(/C=C/c2ccc3no[n+]([O-])c3c2)cc1 [compound 1404] | did not show reproducible acaricidal activity | < 10 | – | – | – | inhibition at 10 µM [2]: 100%; EC50 [3, 8]: > 50 µM
17 | CC(/C=N/NC(=[Se])NCCN1CCOCC1)=C\c1ccco1 [compound 1378] | – | – | – | – | – | inhibition at 10 µM [1]: 0%; IC50 ([2]; IC50 (µM)): 30 µM; inhibition at 100 µM [2]: 77%
18 | O=C(Oc1ccccc1)N1CCN(C(=O)Oc2ccccc2)CC1 [compound 715] | – | – | – | – | – | IC50 ([4]; 24 h): > 50 µM; inhibition at 100 µM ([4]; 24 h): 64%
19 | [O-][n+]1c2ccc(O)cc2[n+]([O-])c2cc(Cl)c(Cl)cc21 [compound 183] | – | – | < 25 | – | 62 | –
20 | Cc1ccc(/C=C/C=N/N2CCN(C/C=C/c3ccccc3)CC2)o1 [compound 903] | – | – | > 50 | > 50 | 75 | % of Mortality AIT [5]: 10 ± 1%
